The source made the active and inactive calls. Cut-off read from the data, not from the text of the source, for most assays here: actives have a measured EC50 and inactives only a lower limit.
Legend:
[1] = NIH-3T3 fibroblast cytotoxicity, dose response, cytotoxicity control, cell-based, fluorescence, Alamar Blue, secondary assay (AID 2327); assay type: functional;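 note: NIH-3T3 mouse fibroblasts cultured with fluconazole at 8 µg/mL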
[2] = test system: Streptococcus sp. 'group A'; test: Streptococcus pyogenes SK(-)GAS viability under kanamycin – luminescence, BacTiterGlo, confirmation, counter-screen for streptokinase expression inhibitor project, dose response (AID 1900); assay type: functional, organism-based
[3] = molecular target: T1, Streptokinase A (Streptococcus pyogenes serotype M1, UniProt P10520); test: viability-normalized secreted streptokinase activity reduction – plasminogen activation absorbance, OD405, dose response (AID 1914); assay type: functional, Streptococcus pyogenes M1 GAS;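 note: secreted streptokinase activity via plasminogen activation per viability signal from cell pellet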
T1 sequence (P10520 whole entry): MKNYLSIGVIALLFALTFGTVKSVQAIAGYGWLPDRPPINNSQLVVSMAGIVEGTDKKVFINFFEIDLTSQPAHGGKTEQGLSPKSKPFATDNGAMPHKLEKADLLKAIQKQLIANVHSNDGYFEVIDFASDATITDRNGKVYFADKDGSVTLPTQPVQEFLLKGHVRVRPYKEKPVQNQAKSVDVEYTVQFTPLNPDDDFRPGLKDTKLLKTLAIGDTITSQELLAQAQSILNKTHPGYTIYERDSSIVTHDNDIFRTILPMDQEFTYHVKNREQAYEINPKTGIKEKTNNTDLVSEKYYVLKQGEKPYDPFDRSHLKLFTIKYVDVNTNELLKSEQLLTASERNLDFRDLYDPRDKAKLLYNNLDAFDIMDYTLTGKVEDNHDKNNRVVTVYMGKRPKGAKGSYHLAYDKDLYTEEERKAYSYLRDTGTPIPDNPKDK

[4] = fluconazole-exposed Candida albicans growth modulators – fluorescence, retest, confirmation (AID 2467); assay type: functional, cell-based
[5] = test system: Streptococcus; test: GAS UMAA2166 growth inhibition – luminescence, BacTiterGlo, counter-screen for streptokinase expression inhibitor project, dose response (AID 1915); assay type: functional, organism-based;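 note: potency for reduction of bacterial viability or growth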
[6] = molecular target: Large T antigen (Simian virus 40, UniProt P03070); assay type: functional, Betapolyomavirus macacae;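 note: Confirmatory-stage PubChem screen for compounds that inhibit SV40 T antigen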
[7] = molecular target: T2, Rac GTPase-activating protein 1 (Homo sapiens, UniProt Q9H0H5); test: blockers of MgcRacGAP-driven Rac1 GTP hydrolysis – biochemical, ADP Hunter fluorescence, primary and confirmatory, confirmation (AID 624330); assay type: functional
T2 sequence (Q9H0H5 whole entry): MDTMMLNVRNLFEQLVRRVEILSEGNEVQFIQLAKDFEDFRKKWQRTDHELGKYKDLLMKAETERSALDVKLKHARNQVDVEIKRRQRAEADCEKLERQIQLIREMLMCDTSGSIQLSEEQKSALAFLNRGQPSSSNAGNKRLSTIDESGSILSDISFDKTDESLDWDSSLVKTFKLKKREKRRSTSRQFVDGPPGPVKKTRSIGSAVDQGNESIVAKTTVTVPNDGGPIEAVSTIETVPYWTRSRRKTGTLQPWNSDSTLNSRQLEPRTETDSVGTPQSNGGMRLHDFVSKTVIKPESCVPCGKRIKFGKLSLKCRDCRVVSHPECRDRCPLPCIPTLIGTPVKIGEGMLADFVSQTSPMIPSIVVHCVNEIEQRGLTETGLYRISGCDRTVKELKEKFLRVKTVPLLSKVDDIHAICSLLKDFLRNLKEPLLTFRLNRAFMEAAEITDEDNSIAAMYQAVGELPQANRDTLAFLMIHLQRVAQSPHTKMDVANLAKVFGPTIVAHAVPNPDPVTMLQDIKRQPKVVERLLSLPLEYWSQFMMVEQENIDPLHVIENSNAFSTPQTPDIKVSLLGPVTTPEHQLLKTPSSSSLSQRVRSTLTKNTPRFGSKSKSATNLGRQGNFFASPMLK

[8] = molecular target: T3, Polyadenylate-binding protein 1 (Homo sapiens, UniProt P11940); test: MLLE binding blockers, Cy5 peptide tracer – biochemical, fluorescence polarization, Cy5-PAM2 peptide, secondary, miRNA deadenylation inhibitor project, dose response (AID 602260); assay type: functional; details: read-out: IC50_Mean
[9] = molecular target: T3, Polyadenylate-binding protein 1; test: MLLE domain peptide-binding blockers, IC50 – biochemical, fluorescence polarization, FITC-PAM2 peptide, dose response (AID 602259); assay type: functional; details: read-out: IC50_Mean
[10] = Luminescence Cell-Based Dose Retest to Confirm Inhibitors of Cancer Stem Cells. [Related pubchem assays (depositor defined):AID2717, AID2721]; assay type: functional; details: Homo sapiens
[11] = molecular target: T4, Heat shock factor protein 1 (Mus musculus, UniProt P38532); test: enhancement of HSF1-driven luciferase signal – cell-based, NIH3T3, luminescence, dose retest, confirmation (AID 435004); assay type: functional;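 note: stress induced by proteasome inhibitor MG132 added 30 min after compound; luciferase reporter driven by HSF1 response element in NIH3T3 cells; actives raise luminescence as potentiators of the MG132 stress response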
T4 sequence (P38532 whole entry): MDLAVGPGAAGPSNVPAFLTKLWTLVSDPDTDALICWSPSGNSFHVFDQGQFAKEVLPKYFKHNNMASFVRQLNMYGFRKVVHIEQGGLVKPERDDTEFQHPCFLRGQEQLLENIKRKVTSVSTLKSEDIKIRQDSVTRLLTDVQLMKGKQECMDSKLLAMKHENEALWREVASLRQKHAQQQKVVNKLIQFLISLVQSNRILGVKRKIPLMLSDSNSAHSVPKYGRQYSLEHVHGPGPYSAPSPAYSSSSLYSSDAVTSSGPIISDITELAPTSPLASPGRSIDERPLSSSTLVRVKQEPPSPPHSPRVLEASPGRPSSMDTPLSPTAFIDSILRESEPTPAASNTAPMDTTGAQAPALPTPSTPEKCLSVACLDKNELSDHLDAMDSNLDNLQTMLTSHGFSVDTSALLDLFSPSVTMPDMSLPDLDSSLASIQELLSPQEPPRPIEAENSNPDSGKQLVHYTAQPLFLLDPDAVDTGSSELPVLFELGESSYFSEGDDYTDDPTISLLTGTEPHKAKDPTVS

[12] = Trypanosoma cruzi growth suppression in host cells – NIH3T3 host cells, beta-gal luminescence, confirmation (AID 2044); assay type: functional, cell-based;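 note: intracellular parasites grown in NIH/3T3 mouse fibroblasts as host cells; luminescent beta-galactosidase reporter signal from transgenic T. cruzi replicating inside host cells; inhibitors lower the luminescence signal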
[13] = NIH3T3 cell viability loss – ATP luminescence, mouse fibroblasts, counter-screen, dose response (AID 2010); assay type: functional, cell-based;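 note: cells exposed to compound for about 90 hours before reading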
[14] = molecular target: T5, Replicative DNA helicase DnaB (Mycobacterium tuberculosis, UniProt P9WMR3); test: DnaB intein splicing inhibitors, dose response, biochemical, cell-free fluorescence (AID 449749); assay type: functional
T5 sequence (P9WMR3 whole entry): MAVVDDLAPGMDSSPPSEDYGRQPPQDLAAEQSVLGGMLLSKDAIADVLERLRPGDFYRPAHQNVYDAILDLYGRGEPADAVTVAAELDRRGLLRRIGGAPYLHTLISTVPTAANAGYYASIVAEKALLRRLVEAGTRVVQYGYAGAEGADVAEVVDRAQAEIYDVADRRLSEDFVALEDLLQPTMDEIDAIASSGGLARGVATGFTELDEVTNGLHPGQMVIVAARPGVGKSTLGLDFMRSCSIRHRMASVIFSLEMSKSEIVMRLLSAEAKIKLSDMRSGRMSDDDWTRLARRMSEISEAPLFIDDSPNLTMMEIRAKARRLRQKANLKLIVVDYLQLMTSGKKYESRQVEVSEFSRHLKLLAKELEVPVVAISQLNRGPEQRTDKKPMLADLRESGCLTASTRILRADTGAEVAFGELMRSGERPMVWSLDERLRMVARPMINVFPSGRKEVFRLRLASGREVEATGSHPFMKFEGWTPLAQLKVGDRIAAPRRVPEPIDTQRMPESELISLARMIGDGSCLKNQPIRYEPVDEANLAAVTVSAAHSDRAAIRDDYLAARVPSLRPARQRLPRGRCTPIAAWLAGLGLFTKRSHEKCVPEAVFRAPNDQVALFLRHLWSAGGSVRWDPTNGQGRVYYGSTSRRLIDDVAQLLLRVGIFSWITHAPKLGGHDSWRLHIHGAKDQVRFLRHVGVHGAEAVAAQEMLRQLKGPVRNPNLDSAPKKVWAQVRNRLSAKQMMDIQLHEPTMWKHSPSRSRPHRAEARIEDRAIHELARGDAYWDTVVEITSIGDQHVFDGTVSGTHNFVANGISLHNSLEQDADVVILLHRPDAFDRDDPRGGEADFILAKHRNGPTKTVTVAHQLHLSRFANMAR

[15] = molecular target: T6, Protein RecA (Mycobacterium tuberculosis, UniProt P9WHJ3); test: Fluorescence Cell-Free Homogeneous Dose Retest to Identify Inhibitors of RecA-Intein Splicing Activity. [Related pubchem assays (depositor defined):AID2097, AID2223, AID489010, AID492950]; assay type: functional
T6 sequence (P9WHJ3 whole entry): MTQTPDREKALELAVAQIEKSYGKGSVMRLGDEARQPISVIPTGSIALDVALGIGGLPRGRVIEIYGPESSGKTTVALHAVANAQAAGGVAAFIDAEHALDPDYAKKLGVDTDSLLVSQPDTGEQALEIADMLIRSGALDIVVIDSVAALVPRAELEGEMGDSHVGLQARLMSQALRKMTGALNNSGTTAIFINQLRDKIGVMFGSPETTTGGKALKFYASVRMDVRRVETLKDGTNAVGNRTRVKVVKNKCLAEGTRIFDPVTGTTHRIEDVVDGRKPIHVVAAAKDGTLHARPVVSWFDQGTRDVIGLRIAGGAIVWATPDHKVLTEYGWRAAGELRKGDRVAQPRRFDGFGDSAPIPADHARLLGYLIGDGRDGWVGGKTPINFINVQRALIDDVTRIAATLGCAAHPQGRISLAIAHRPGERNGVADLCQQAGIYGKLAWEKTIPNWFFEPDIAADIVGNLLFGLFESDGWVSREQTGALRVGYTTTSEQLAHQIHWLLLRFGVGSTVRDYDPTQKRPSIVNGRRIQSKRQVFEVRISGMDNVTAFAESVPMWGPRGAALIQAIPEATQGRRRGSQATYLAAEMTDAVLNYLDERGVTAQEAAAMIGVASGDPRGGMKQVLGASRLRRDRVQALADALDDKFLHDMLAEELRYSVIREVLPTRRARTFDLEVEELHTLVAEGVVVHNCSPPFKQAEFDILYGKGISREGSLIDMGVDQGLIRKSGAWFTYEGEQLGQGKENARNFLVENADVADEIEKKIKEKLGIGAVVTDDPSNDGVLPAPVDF

[16] = test system: INS1; test: INS-1E survival protection against cytokine death – cell-based, luminescence, retest, dose response (AID 449756); assay type: functional; details: Rattus norvegicus;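 note: cell death triggered by IL-1 beta plus TNF-alpha plus IFN-gamma mixture; protective hits raise ATP signal compared with cytokine alone wells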
[17] = luciferase reporter signal suppression in cells – H4 neuroglioma cells, luminescence, dose response (AID 1990); assay type: functional, cell-based
[18] = Luminescence Cell-Based Dose Response HTS to Identify Inhibitors of 5'UTR Stem-Loop Driven Prion Protein mRNA Translation in H4 Neuroglioblastoma Cells. [Related pubchem assays: 1827 (Project Summary), 1813 (Primary HTS)]; assay type: functional
[19] = alpha-synuclein stem-loop luciferase translation blockers – H4 neuroglioma cells, luminescence, confirmation (AID 1988); assay type: functional, cell-based
[20] = cells; assay type: functional

Large T antigen, sequence (P03070 whole entry): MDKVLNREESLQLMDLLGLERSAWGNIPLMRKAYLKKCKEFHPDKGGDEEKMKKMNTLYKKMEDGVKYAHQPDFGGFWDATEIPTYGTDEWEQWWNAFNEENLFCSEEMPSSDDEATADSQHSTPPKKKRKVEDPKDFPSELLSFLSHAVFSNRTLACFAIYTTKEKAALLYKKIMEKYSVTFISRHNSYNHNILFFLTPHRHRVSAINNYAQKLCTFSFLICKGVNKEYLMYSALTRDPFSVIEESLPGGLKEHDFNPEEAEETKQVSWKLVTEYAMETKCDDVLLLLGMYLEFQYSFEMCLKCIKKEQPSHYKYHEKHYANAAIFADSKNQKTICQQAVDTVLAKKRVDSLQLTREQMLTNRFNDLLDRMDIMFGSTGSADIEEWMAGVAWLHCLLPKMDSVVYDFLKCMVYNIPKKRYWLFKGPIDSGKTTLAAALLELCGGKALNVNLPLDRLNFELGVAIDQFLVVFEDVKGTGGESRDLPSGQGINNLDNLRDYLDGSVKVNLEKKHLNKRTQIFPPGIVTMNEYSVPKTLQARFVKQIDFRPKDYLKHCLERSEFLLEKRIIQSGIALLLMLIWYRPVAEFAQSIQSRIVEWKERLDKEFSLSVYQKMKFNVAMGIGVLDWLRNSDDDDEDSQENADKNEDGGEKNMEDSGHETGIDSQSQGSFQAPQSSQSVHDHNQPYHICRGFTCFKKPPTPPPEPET
T3 sequence (P11940 whole entry, the tested form may be a part): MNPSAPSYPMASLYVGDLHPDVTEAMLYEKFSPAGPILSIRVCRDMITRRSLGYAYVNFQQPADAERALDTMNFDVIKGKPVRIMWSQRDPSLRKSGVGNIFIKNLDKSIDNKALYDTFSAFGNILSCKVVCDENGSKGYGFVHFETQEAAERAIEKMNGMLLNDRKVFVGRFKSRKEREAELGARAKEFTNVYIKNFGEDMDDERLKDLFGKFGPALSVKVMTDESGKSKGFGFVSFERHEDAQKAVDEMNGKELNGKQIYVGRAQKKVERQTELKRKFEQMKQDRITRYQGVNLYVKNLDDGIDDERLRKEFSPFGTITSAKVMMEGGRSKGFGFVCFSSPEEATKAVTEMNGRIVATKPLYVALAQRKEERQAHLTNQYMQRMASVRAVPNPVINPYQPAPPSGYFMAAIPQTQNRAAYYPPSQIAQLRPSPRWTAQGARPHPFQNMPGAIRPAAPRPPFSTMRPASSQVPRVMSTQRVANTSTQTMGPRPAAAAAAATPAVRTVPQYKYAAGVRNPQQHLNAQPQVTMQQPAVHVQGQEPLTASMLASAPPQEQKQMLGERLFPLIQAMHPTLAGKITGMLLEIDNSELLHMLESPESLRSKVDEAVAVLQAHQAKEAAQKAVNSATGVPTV

CCOC(=O)c1[nH]c2ccc(F)cc2c1NC(=O)c1ccccc1C(=O)O
EC50 [1]: > 150 µM (inconclusive) | EC50 [2]: > 150 µM (not active) | EC50 [3]: > 150 µM (not active) | EC50 [4]: > 38 µM (not active) | EC50 [5]: > 150 µM (not active)

COc1cc(/C=N/NC(=O)CC2C(=O)NN=C2C)ccc1O (configuration not stated)
IC50 [6]: 11.5 µM (active) | IC50 [7]: 53.7 µM (active)

COc1cc(/C=N/NC(=O)c2ccoc2C)cc(OC)c1O
IC50 [6]: 33.9 µM (active)

NC(=O)CN(c1ccccc1)C1SC(=O)N(Cc2ccccc2)C1=O (configuration not stated)
IC50 [8]: > 66 µM (inactive) | IC50 [9]: > 66 µM (inactive)

COc1ccc(C)cc1N=C(S)NNC(=O)c1c(Br)cnn1C
EC50 [1]: > 150 µM (inactive) | EC50 [4]: 1.45 µM (active)

COCCSc1nnc(NC(=O)C2CC(=O)N(c3ccc(C)cc3)C2)s1 (configuration not stated)
EC50 [1]: > 160 µM (inactive) | EC50 [4]: > 38 µM (not active)

O=C1ON=C(c2ccccc2)/C1=C\c1ccco1
IC50 [6]: 28.2 µM (active)

O=C(NC(=S)Nc1cccnc1)c1cc2ccccc2o1
IC50 [8]: > 66 µM (inactive) | IC50 [9]: > 66 µM (inactive)

Cc1cc(C(=O)NNc2ccc(Cl)cc2)no1
EC50 [1]: 2.59 µM (active) | EC50 [4]: 0.819 µM (active) | AC50 [10]: 1.35 µM (active)

Cc1c(NC(=O)C(C)N2CC(C)OC(C)C2)c(=O)n(-c2ccccc2)n1C (configuration not stated)
EC50 [11]: > 260 µM (inactive)

CC(C)(C)c1ccc(/C=C(\c2nc3ccccc3[nH]2)S(=O)(=O)c2ccccc2)cc1
EC50 [12]: 0.995 µM (active) | EC50 [13]: > 60 µM (not active) | AC50 [10]: 1.36 µM (active) | AC50 [14]: 2.19 µM (active) | EC50 [15]: 2.77 µM (active) | AC50 [16]: 6.71 µM (active)

CN1CCN(/N=C/c2c[nH]c3ccccc23)CC1
IC50 [6]: 15.4 µM (active)

COc1ccc(S(=O)(=O)N[C@@H](Cc2ccccc2)C(=O)N2CC[C@@]3(O)CCCC[C@H]3C2)cc1
EC50 [11]: > 260 µM (inactive)

CCCOC(c1ccccc1)(c1ccc(C(F)(F)F)cc1)C(Oc1nc(C)cc(C)n1)C(=O)O (configuration not stated)
EC50 [1]: > 160 µM (inactive) | EC50 [17]: 12.4 µM (active) | EC50 [18]: 11.4 µM (active) | EC50 [19]: 8.08 µM (active) | EC50 [4]: 1.91 µM (active)

O=C1/C(=N/n2cnnc2)c2ccccc2N1Cc1ccccc1
IC50 [6]: 24.8 µM (active)

Cc1ccccc1-n1nnc2c(=O)oc3ccccc3c21
EC50 [11]: > 260 µM (inactive) | IC50 [20]: 1.13 µM (active)

Oc1ccc(/C=N/Nc2ccc(Cl)nn2)cc1O
IC50 [6]: 8.16 µM (active)

COc1ccc2c(c1)C(=O)Cc1ccccc1O2
IC50 [6]: 86.7 µM (active)

CN1C(=O)C2C(c3ccc(N(C)C)cc3)=NN(Cc3ccccc3)C2C1=O (configuration not stated)
IC50 [6]: 19 µM (active) | EC50 [11]: 40.3 µM (active) | IC50 [7]: 43 µM (active)

CC(=O)NCCc1nc2ccccc2n1CCOc1cccc(C)c1
EC50 [11]: > 260 µM (inactive)

CCCCn1c(SCC(=O)Nc2cccc(OC)c2)nc2ccc(N3CCOCC3)cc2c1=O
EC50 [1]: 141 µM (active) | EC50 [4]: > 38 µM (not active)

O=C(Nc1cccc(Cl)c1)C1CCCN(S(=O)(=O)c2ccc(F)cc2)C1 (configuration not stated)
EC50 [11]: > 260 µM (inactive)

CC(=O)Oc1cc2oc(=O)cc(C)c2cc1OC(C)=O
IC50 [6]: 21.4 µM (active)

Reference: ChEMBL document CHEMBL1201862, “PubChem BioAssay data set” (2004)
